Results as given in the CheMixHub viscosity set.
Where “and” joins values, the source holds several entries; their conditions need not be identical. Equal entries are not always repeated. ± gives the uncertainty stated by the source.

Assay: xn = mol fraction of the nth substance listed

Cc1ccccc1 + CCCCO
viscosity [mPa·s]
Conditions	298.15 K	303.15 K	308.15 K	313.15 K	318.15 K
101 kPa, x1 = 0.092	2.01 ± 0.07	1.769 ± 0.062	1.581 ± 0.056	1.393 ± 0.05	1.292 ± 0.047
101 kPa, x1 = 0.1987	1.59 ± 0.057	1.459 ± 0.052	1.323 ± 0.048	1.199 ± 0.044	1.106 ± 0.041
101 kPa, x1 = 0.2983	1.279 ± 0.046	1.181 ± 0.043	1.076 ± 0.04	0.9827 ± 0.037	0.9514 ± 0.036
101 kPa, x1 = 0.393	1.084 ± 0.04	1.004 ± 0.037	0.9192 ± 0.035	0.8418 ± 0.032	0.8198 ± 0.032
101 kPa, x1 = 0.5091	0.8978 ± 0.034	0.8372 ± 0.032	0.7739 ± 0.03	0.714 ± 0.028	0.7048 ± 0.028
101 kPa, x2 = 0.12	0.56 ± 0.006	–	–	–	–
101 kPa, x2 = 0.24	0.635 ± 0.006	–	–	–	–
101 kPa, x2 = 0.35	0.715 ± 0.007	–	–	–	–
101 kPa, x2 = 0.45	0.84 ± 0.008	–	–	–	–
101 kPa, x2 = 0.55	0.997 ± 0.01	–	–	–	–
101 kPa, x2 = 0.65	1.199 ± 0.012	–	–	–	–
101 kPa, x2 = 0.74	1.441 ± 0.014	–	–	–	–
101 kPa, x2 = 0.83	1.73 ± 0.017	–	–	–	–
101 kPa, x2 = 0.92	2.12 ± 0.021	–	–	–	–
101.33 kPa, x1 = 0.0859	–	1.86 ± 0.03	1.656 ± 0.027	1.489 ± 0.024	–
101.33 kPa, x1 = 0.2006	–	1.452 ± 0.023	1.311 ± 0.021	1.193 ± 0.02	–
101.33 kPa, x1 = 0.2972	–	1.175 ± 0.019	1.065 ± 0.018	0.979 ± 0.016	–
101.33 kPa, x1 = 0.3877	–	0.999 ± 0.017	0.911 ± 0.015	0.84 ± 0.014	–
101.33 kPa, x1 = 0.5025	–	0.833 ± 0.014	0.77 ± 0.013	0.713 ± 0.013	–
101.33 kPa, x1 = 0.6013	–	0.726 ± 0.013	0.675 ± 0.012	0.629 ± 0.011	–
101.33 kPa, x1 = 0.7617	–	0.59 ± 0.011	0.557 ± 0.01	0.524 ± 0.01	–
101.33 kPa, x1 = 0.8121	–	0.571 ± 0.01	0.534 ± 0.01	0.507 ± 0.007	–
101.33 kPa, x1 = 0.947	–	0.526 ± 0.01	0.498 ± 0.007	0.478 ± 0.007	–

c1ccc2ccccc2c1 + CCCCO
viscosity
Conditions	303.15 K	308.15 K	313.15 K	318.15 K	323.15 K
101 kPa, x1 = 0.07958	2.076 ± 0.053 mPa·s	1.848 ± 0.047 mPa·s	1.633 ± 0.042 mPa·s	1.461 ± 0.037 mPa·s	1.312 ± 0.033 mPa·s
101 kPa, x1 = 0.1174	–	1.796 ± 0.046 mPa·s	1.601 ± 0.041 mPa·s	1.427 ± 0.036 mPa·s	1.28 ± 0.032 mPa·s
101.33 kPa, x1 = 0.06489	–	–	1.67 ± 0.044 mPa·s	–	1.33 ± 0.035 mPa·s
101.33 kPa, x1 = 0.07958	2.076 ± 0.015 mPa·s	1.848 ± 0.013 mPa·s	1.633 ± 0.011 mPa·s and 1.633 ± 0.043 mPa·s	1.461 ± 0.01 mPa·s	1.312 ± 0.0092 mPa·s and 1.312 ± 0.035 mPa·s
101.33 kPa, x1 = 0.09537	–	–	1.624 ± 0.043 mPa·s	–	1.3 ± 0.035 mPa·s
101.33 kPa, x1 = 0.1174	–	–	1.601 ± 0.042 mPa·s	–	1.28 ± 0.034 mPa·s
101.33 kPa, x1 = 0.12	–	1.796 ± 0.013 mPa·s	1.601 ± 0.011 mPa·s	1.427 ± 0.01 mPa·s	1.28 ± 0.009 mPa·s
101.33 kPa, x1 = 0.1436	–	–	1.567 ± 0.041 mPa·s	–	1.26 ± 0.034 mPa·s

CC(C)=O + CCCCn1cc[n+](C)c1.F[B-](F)(F)F
Conditions	viscosity [mPa·s]
298.15 K, 101 kPa, x1 = 0.0973	77.6 ± 14
